Data from patent US20240307362A1 (priority 2019, published 2024).
Read-outs that look alike come from different tables or passages of the source.

Key:
Ba/F3-EGFR-WT = assay: Ba/F3 cell survival assay, WT EGFR; type: cell-based
human Bub1 = human Bub1 (Homo sapiens (Human), UniProt O43683); assay: Bub1 high ATP kinase assay (TR-FRET); type: biochemical
Text: Bub1-inhibitory activity of compounds of the present invention at a high ATP concentration was quantified employing the Bub1 TR-FRET high ATP kinase assay as described in the following paragraphs.
N-terminally His6-tagged recombinant catalytic domain of human Bub1 (amino acids 704-1085), expressed in insect cells (Hi5) and purified by Ni-NTA affinity chromatography and subsequent size exclusion chromatography, was used as enzyme.

[1] = biological target: mutEGFR (D770_N771insSVD) (Homo sapiens (Human), UniProt P00533, INS770SVD); assay: biochemical; conditions: mutEGFR (D770_N771 insSVD) at 2 mM ATP IC50, 2 mM ATP
Sequence of mutEGFR (D770_N771insSVD) (P00533 other isoform, or with tags, fused parts or gaps ins SVD behind 770): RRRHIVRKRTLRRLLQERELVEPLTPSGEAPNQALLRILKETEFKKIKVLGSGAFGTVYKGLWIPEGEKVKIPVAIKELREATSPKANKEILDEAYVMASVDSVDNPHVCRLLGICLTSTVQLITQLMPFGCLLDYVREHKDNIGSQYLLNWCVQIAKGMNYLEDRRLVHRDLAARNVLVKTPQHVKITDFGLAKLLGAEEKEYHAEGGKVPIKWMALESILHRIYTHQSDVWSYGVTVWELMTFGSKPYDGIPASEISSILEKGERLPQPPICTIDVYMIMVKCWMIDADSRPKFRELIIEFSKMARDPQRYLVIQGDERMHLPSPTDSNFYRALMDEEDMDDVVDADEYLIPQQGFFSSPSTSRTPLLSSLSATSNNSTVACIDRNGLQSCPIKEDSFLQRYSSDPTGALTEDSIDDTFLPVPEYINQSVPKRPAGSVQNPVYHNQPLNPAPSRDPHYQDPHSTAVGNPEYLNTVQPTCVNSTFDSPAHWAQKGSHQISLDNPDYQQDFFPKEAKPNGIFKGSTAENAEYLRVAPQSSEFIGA

Ba/F3-EGFR-insSVD = assay: Ba/F3 cell survival assay, EGFR-insSVD; type: cell-based
In short: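 Ba/F3 cells stably expressing WT EGFR or EGFR-insSVD via retrovirus, grown without IL-3 on 10 ng/mL EGF, plated at 4000 cells/well. Compound exposure 48 h at 37 °C; viability read by CellTiter-Glo luminescence.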

[2] = Mus musculus, BaF3, 48 h, read-out: BA/F3 (wild type) IC50, cell viability, Cell Titer-Glo, 48 h, with 10 ng/mL EGF, without IL-3
[3] = read-out: Bub1 high ATP (2 mM) IC50, 2 mM ATP
[4] = read-out: BA/F3 (insSVD) IC50, cell viability, Cell Titer-Glo, 48 h, with 10 ng/mL EGF, without IL-3
[5] = Mus musculus, BaF3, 48 h, read-out: BA/F3 (insSVD) IC50, cell viability, Cell Titer-Glo, 48 h, with 10 ng/mL EGF, without IL-3
[6] = read-out: BA/F3 (wild type) IC50, cell viability, Cell Titer-Glo, 48 h, with 10 ng/mL EGF, without IL-3

Sequence of human Bub1 (O43683 704-1085): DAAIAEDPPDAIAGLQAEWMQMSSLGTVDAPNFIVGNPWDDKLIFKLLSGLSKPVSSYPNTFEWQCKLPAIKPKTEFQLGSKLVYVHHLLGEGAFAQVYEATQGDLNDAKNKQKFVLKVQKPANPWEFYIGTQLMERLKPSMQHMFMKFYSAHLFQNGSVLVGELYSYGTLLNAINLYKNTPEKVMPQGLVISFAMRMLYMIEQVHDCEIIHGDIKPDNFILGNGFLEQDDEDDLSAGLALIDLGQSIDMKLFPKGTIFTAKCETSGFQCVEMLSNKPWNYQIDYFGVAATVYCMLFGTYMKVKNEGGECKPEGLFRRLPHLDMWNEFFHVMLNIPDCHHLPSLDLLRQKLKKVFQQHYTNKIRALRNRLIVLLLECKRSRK

SMILES | IC50 (Ba/F3-EGFR-WT; [2]) [nM] | IC50 (human Bub1; [3]) [nM] | IC50 [1] [nM] | IC50 (Ba/F3-EGFR-insSVD; [4]) [nM] | IC50 (Ba/F3-EGFR-insSVD; [5]) [nM] | IC50 (Ba/F3-EGFR-WT; [6]) [nM] | IC50 (human Bub1; Bub1 high ATP (2 mM) IC50, 2 mM ATP) [nM]
Cc1c(F)cccc1Nc1c(-c2ccncc2OCC2(C)CCO2)[nH]c2c1C(=O)NCC2 (single isomer, unassigned; (-)) [Example 84, (−)-3-(3-fluoro-2-methylanilino)-2-(3-{[2-methyloxetan-2-yl]methoxy}pyridin-4-yl)-1,5,6,7-tetrahydro-4H-pyrrolo[3,2-c]pyridin-4-one] | 1290 | 14900 | 0.156 | 306 |  |  | 
CCC1(COc2cnccc2-c2[nH]c3c(c2Nc2cccc(C)c2Cl)C(=O)NCC3)COC1 [Example 86, 3-(2-chloro-3-methylanilino)-2-{3-[(3-ethyloxetan-3-yl)methoxy]pyridin-4-yl}-1,5,6,7-tetrahydro-4H-pyrrolo[3,2-c]pyridin-4-one] | 899 | > 5700 | 0.187 |  | 255 |  | 
CCc1c(Cl)cccc1Nc1c(-c2ccncc2OCC2(C)CCO2)[nH]c2c1C(=O)NCC2 (stereo not shown) [Example 78, 3-(3-chloro-2-ethylanilino)-2-(3-{[2-methyloxetan-2-yl]methoxy}pyridin-4-yl)-1,5,6,7-tetrahydro-4H-pyrrolo[3,2-c]pyridin-4-one] | 698 | 2800 | 0.267 |  | 30.4 |  | 
Cc1c(Cl)cccc1Nc1c(-c2ccncc2OCC2(C)CCO2)[nH]c2c1C(=O)NCC2 (racemic) [Example 80, 3-(3-chloro-2-methylanilino)-2-(3-{[2-methyloxetan-2-yl]methoxy}pyridin-4-yl)-1,5,6,7-tetrahydro-4H-pyrrolo[3,2-c]pyridin-4-one] | 546 | 6640 | 0.187 |  | 35.2 |  | 
Cc1cccc(Nc2c(-c3ccncc3OCC3(C)CCO3)[nH]c3c2C(=O)NCC3)c1Cl (single isomer, unassigned; (+)) [Example 56, (+)-3-(2-chloro-3-methylanilino)-2-{3-[(2-methyloxetan-2-yl)methoxy]pyridin-4-yl}-1,5,6,7-tetrahydro-4H-pyrrolo[3,2-c]pyridin-4-one] |  | 16100 | 0.15 | 35.1 |  | 489 | 
CCC1(COc2cnccc2-c2[nH]c3c(c2Nc2cccc(F)c2OC)C(=O)NCC3)COC1 [Example 88, 2-{3-[(3-ethyloxetan-3-yl)methoxy]pyridin-4-yl}-3-(3-fluoro-2-methoxyanilino)-1,5,6,7-tetrahydro-4H-pyrrolo[3,2-c]pyridin-4-one] | 1130 | 7490 | 0.0873 |  | 66.8 |  | 
COc1c(Cl)cc(F)cc1Nc1c(-c2ccncc2OCC2(C)CCO2)[nH]c2c1C(=O)NCC2 (single isomer, unassigned) [Example 69, 3-(3-chloro-5-fluoro-2-methoxyanilino)-2-(3-{[2-methyloxetan-2-yl]methoxy}pyridin-4-yl)-1,5,6,7-tetrahydro-4H-pyrrolo[3,2-c]pyridin-4-one] |  |  | 0.317 | 241 |  | 1430 | 13500
